Patent US20230322822A1, “ARYL PHOSPHOROUS OXIDE COMPOUNDS AND USE THEREOF” (Chengdu Di'ao Jiuhong Pharmaceutical Factory, priority 2020, published 2023)

How the values were obtained:
[1] = Single administration toxicity test, orally intragastric administration to SD rats; format: in vivo; settings: for Mortality Female: 5 female rats; for Mortality Female / Mortality Male / Mortality/total number of animals: day 15; for Mortality Male: 5 male rats
Method: 8-week-old SD rats, 10 per group, male and female half, were purchased from Beijing SiPeiFu. The rats were tested after 3 days of acclimatization in this laboratory. The oral administration was performed by intragastric administration with an administration volume of 10 mL/kg. The rats were fasted and not forbidden to drink water for 17 hours before administration. The rats in the control group were given an equal volume of solvent via oral gavage. The feeding was resumed about 2 hours after the end of the administration.
Observations were made twice daily after the administration. The day of first administration was defined as day 1 of the test. The test was carried out for 14 consecutive days, and ended in day 15.

[2] = test system: BaF3 EGFR-DTC(C797S/T790M/Del19) cells; experiment: In-vivo pharmacodynamic study, transplanted tumor model of BaF3 EGFR-DTC(C797S/T790M/Del19) cells in nude mice; set-up: species or system BALB/c nude mice
Method: The models used in this test were subcutaneous transplanted tumor models of engineered BaF3 EGFR-DTC(C797S/T790M/Del19) cells in BALB/c nude mice. The engineered BaF3 cells were cultured in vitro suspension. […] Passages were treated twice a week. When the cell number reached requirement, the cells were collected, counted and inoculated. 0.2 mL (10^6) cells (added with matrigel, 1:1 by volume) were subcutaneously inoculated in the right back of each mouse, and divided into groups for administration with 6 mice per group when the mean tumor volume reached 109 mm^3.
Administration mode and frequency: Oral gavage was carried out with an administration volume of 10 mL/kg, and the model group was administered with the same volume of solvent. The administration was once per day and continuously carried out for 14 days.
(§1) General conditions such as spirit, activity, food intake and the like of the mice were observed every day, and the weight was measured thrice every week; the short diameter (a) and the long diameter (b) of each mouse tumor were measured thrice a week with a vernier caliper, and the tumor volume was calculated according to the formula (a^2×b)/2. The Relative Tumor Volume (RTV) was calculated from the measured tumor volume, wherein RTV=Vt/V0, wherein V0 was the tumor volume at random grouping (i.e., d0) and Vt was the tumor volume at each measurement (i.e., dn). The relative tumor proliferation rate of the evaluation index of the anti-tumor activity was calculated according to the following formula: relative tumor proliferation rate T/C (%): […]
(Note: TRTV: treatment group RTV; CRTV: model control group RTV. According to the therapeutic effect evaluation standard in the Technical Guidelines for Non-clinical Research of Cytotoxic Anti-tumor Drugs Issued by National Medical Products Administration of China, the value (T/C %≤40%) was effective).

[3] = test system: NCI-H1975 EGFR DTC(C797S/T790M/Del19) cells; experiment: In vivo pharmacodynamic study, subcutaneously implanted tumor NCI-H1975 EGFR DTC(C797S/T790M/Del19) (two-sided model); set-up: species or system BALB/c nude mouse
Method: Passages were treated twice a week. When the cell number reached requirement, the cells were collected, counted and inoculated.
Administration mode and frequency: oral gavage was carried out with an administration volume of 10 mL/kg, and the model group was administered with the same volume of solvent. The administration was once per day and continuously carried out for 16 days.
as §1
Note: TRTV: treatment group RTV; CRTV model control group RTV.

[4] = Pharmacokinetic test in SD rats; format: in vivo; settings: male, rat, plasma, PO, 20 mg/kg
Method: Six SD rats were taken, which were all male, and about 8-9 weeks old, weighing about 430 g/rat, and fasting but allowed to drink water for 18 hours.
The rats were divided into two groups, wherein the rats in group 1 were dosed with compound 2 and the rats in group 2 were dosed with control compound 4, both orally and intragastrically in a dose of 20 mg/kg. A lavage fluid was prepared using 70 mM citric acid buffer (pH 3.0) at an administration volume of 5 mL/kg.
0.6 mL of blood (EDTA-2K anti-coagulated) was collected from rat orbits at 0.5, 1.5, 3, 4.5, 8, 12, 24, 36, 48 and 72 hours after the administration respectively. The plasma was separated and stored at −70° C., and the plasma samples were analyzed using liquid chromatography tandem mass spectrometry (LC-MS/MS). The plasma concentration-time data of the individual rates was analyzed using a non-compartmental model of DAS3.3.1 software and pharmacokinetic parameters of the test compounds were calculated.

[5] = 25 mg/kg oral gavage once per day
[6] = 50 mg/kg oral gavage once per day
[7] = 20 mg/kg oral gavage once per day
[8] = 40 mg/kg oral gavage once per day

SMILES: COc1cc(N2CCC(N3CCN(C)CC3)CC2)c(C)cc1Nc1ncc(Br)c(Nc2ccc(C)cc2P(C)(C)=O)n1 [Compound 2]
- Mortality Female ([1]; 25 mg/kg single dose): 0
- Mortality Male ([1]; 25 mg/kg single dose): 0
- Mortality/total number of animals ([1]; 25 mg/kg single dose): 0/10
- Mortality Female ([1]; 75 mg/kg single dose): 0
- Mortality Male ([1]; 75 mg/kg single dose): 0
- Mortality/total number of animals ([1]; 75 mg/kg single dose): 0/10
- Mortality Female ([1]; 100 mg/kg single dose): 0
- Mortality Male ([1]; 100 mg/kg single dose): 0
- Mortality/total number of animals ([1]; 100 mg/kg single dose): 0/10
- Mortality Female ([1]; 125 mg/kg single dose): 0
- Mortality Male ([1]; 125 mg/kg single dose): 0
- Mortality/total number of animals ([1]; 125 mg/kg single dose): 0/10
- Mortality Female ([1]; 150 mg/kg single dose): 0
- Mortality Male ([1]; 150 mg/kg single dose): 1
- Mortality/total number of animals ([1]; 150 mg/kg single dose): 1/10
- Mortality Female ([1]; 200 mg/kg single dose): 0
- Mortality Male ([1]; 200 mg/kg single dose): 0
- Mortality/total number of animals ([1]; 200 mg/kg single dose): 0/10
- MTD at 14 days ([1]; both sexes, rat, in vivo, po, SD rats, single orally intragastric administration, read-out: Maximum Tolerated Dose (MTD)): 125 mg/kg
- Tumor volume Day 0 [2, 5]: 109 mm^3
- Relative tumor proliferation rate T/C Day 3 [2, 5]: 59.22%
- Tumor volume Day 3 [2, 5]: 87 mm^3
- Relative tumor proliferation rate T/C Day 5 [2, 5]: 34.07%
- Tumor volume Day 5 [2, 5]: 62 mm^3
- Relative tumor proliferation rate T/C Day 7 [2, 5]: 10.38%
- Tumor volume Day 7 [2, 5]: 41 mm^3
- Relative tumor proliferation rate T/C Day 10 [2, 5]: 5.06%
- Tumor volume Day 10 [2, 5]: 31 mm^3
- Relative tumor proliferation rate T/C Day 12 [2, 5]: 3.12%
- Tumor volume Day 12 [2, 5]: 27 mm^3
- Tumor volume Day 14 [2, 5]: 41 mm^3
- Tumor volume Day 0 [2, 6]: 109 mm^3
- Relative tumor proliferation rate T/C Day 3 [2, 6]: 44.97%
- Tumor volume Day 3 [2, 6]: 67 mm^3
- Relative tumor proliferation rate T/C Day 5 [2, 6]: 24.07%
- Tumor volume Day 5 [2, 6]: 44 mm^3
- Relative tumor proliferation rate T/C Day 7 [2, 6]: 7.97%
- Tumor volume Day 7 [2, 6]: 32 mm^3
- Relative tumor proliferation rate T/C Day 10 [2, 6]: 3.62%
- Tumor volume Day 10 [2, 6]: 22 mm^3
- Relative tumor proliferation rate T/C Day 12 [2, 6]: 1.91%
- Tumor volume Day 12 [2, 6]: 17 mm^3
- Tumor volume Day 14 [2, 6]: 12 mm^3
- NCI-H1975 EGFR DTC(C797S/T790M/Del19) Tumor volume Day 0 [3, 7]: 110 mm^3
- NCI-H1975 EGFR DTC(C797S/T790M/Del19) T/C Day 2 [3, 7]: 75.84%
- NCI-H1975 EGFR DTC(C797S/T790M/Del19) Tumor volume Day 2 [3, 7]: 147 mm^3
- NCI-H1975 EGFR DTC(C797S/T790M/Del19) T/C Day 4 [3, 7]: 66.68%
- NCI-H1975 EGFR DTC(C797S/T790M/Del19) Tumor volume Day 4 [3, 7]: 235 mm^3
- NCI-H1975 EGFR DTC(C797S/T790M/Del19) T/C Day 6 [3, 7]: 56.63%
- NCI-H1975 EGFR DTC(C797S/T790M/Del19) Tumor volume Day 6 [3, 7]: 321 mm^3
- NCI-H1975 EGFR DTC(C797S/T790M/Del19) T/C Day 9 [3, 7]: 43.36%
- NCI-H1975 EGFR DTC(C797S/T790M/Del19) Tumor volume Day 9 [3, 7]: 480 mm^3
- NCI-H1975 EGFR DTC(C797S/T790M/Del19) T/C Day 11 [3, 7]: 40.68%
- NCI-H1975 EGFR DTC(C797S/T790M/Del19) Tumor volume Day 11 [3, 7]: 583 mm^3
- NCI-H1975 EGFR DTC(C797S/T790M/Del19) T/C Day 13 [3, 7]: 40.09%
- NCI-H1975 EGFR DTC(C797S/T790M/Del19) Tumor volume Day 13 [3, 7]: 720 mm^3
- NCI-H1975 EGFR DTC(C797S/T790M/Del19) T/C Day 16 [3, 7]: 37.95%
- NCI-H1975 EGFR DTC(C797S/T790M/Del19) Tumor volume Day 16 [3, 7]: 1065 mm^3
- NCI-H1975 EGFR DTC(C797S/T790M/Del19) Tumor volume Day 0 [3, 8]: 113 mm^3
- NCI-H1975 EGFR DTC(C797S/T790M/Del19) T/C Day 2 [3, 8]: 67.13%
- NCI-H1975 EGFR DTC(C797S/T790M/Del19) Tumor volume Day 2 [3, 8]: 133 mm^3
- NCI-H1975 EGFR DTC(C797S/T790M/Del19) T/C Day 4 [3, 8]: 50.41%
- NCI-H1975 EGFR DTC(C797S/T790M/Del19) Tumor volume Day 4 [3, 8]: 177 mm^3
- NCI-H1975 EGFR DTC(C797S/T790M/Del19) T/C Day 6 [3, 8]: 39.48%
- NCI-H1975 EGFR DTC(C797S/T790M/Del19) Tumor volume Day 6 [3, 8]: 217 mm^3
- NCI-H1975 EGFR DTC(C797S/T790M/Del19) T/C Day 9 [3, 8]: 24.87%
- NCI-H1975 EGFR DTC(C797S/T790M/Del19) Tumor volume Day 9 [3, 8]: 269 mm^3
- NCI-H1975 EGFR DTC(C797S/T790M/Del19) T/C Day 11 [3, 8]: 22.07%
- NCI-H1975 EGFR DTC(C797S/T790M/Del19) Tumor volume Day 11 [3, 8]: 308 mm^3
- NCI-H1975 EGFR DTC(C797S/T790M/Del19) T/C Day 13 [3, 8]: 18.98%
- NCI-H1975 EGFR DTC(C797S/T790M/Del19) Tumor volume Day 13 [3, 8]: 327 mm^3
- NCI-H1975 EGFR DTC(C797S/T790M/Del19) T/C Day 16 [3, 8]: 14.36%
- NCI-H1975 EGFR DTC(C797S/T790M/Del19) Tumor volume Day 16 [3, 8]: 385 mm^3
- AUC(0-t) [4]: 96300 ng·h/mL
- Cmax [4]: 2310 ng/mL
